Assay results: US20260234099A1, “Endocannabinoid ligands and related analogs” (Northeastern University, priority 2023, published 2026)
Read-outs that look alike come from different tables or passages of the source.

Columns and labels:
[1] = molecular target: T1, CB2 receptor (Homo sapiens, UniProt P34972); assay: GTPγ-S binding assay, CB2; format: biochemical
Procedure: The activity of some of the disclosed compounds for the CB1 and CB2 receptors was assessed by using the GTPγ-S binding assay (Tables 2,3,4). As used herein the “effect” of the compound on the GTPγ-S assay is represented by the EC50 (GTP) value. The lower the EC50 (GTP) value the higher the potency of the compound for the receptor A detailed description of the methods used to test compounds using the GTPγ-S assay is given in Parkkari, et al., Biorg. Med. Chem. Letters 2006, 16(9), 2437 and Griffin, et al., J. Pharmacol. Exp. Ther. 1998, 285(2), 553-560 the content of which is hereby incorporated by reference.

[2] = molecular target: CB2 receptor (hCB2) (Homo sapiens, UniProt P34972); assay: cAMP assay (inhibition of FSK stimulated cAMP), CB2; format: cell-based
CB2 receptor (hCB2), sequence (P34972 whole entry): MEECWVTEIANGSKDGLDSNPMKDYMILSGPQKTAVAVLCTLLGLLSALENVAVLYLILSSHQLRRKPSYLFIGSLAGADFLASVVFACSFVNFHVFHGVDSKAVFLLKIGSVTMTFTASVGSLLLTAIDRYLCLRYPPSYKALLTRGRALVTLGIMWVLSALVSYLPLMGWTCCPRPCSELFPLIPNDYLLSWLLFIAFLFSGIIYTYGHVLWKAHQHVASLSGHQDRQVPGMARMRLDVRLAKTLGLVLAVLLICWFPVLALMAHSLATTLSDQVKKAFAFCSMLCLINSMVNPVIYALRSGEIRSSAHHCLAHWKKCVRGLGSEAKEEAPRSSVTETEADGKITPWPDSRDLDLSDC
Procedure: FIG. 2A is a graph providing data of the % inhibition of FSK stimulated cAMP for compound 6.1.1 for hCB2.
Further functional characterization of some of the disclosed compounds tested initially for “binding affinity” or for GTPγ-S binding was performed by using the cyclic adenosine monophosphate (cAMP) assay. Key compounds initially characterized functionally using the GTPγ-S assay were also doubly tested using the cAMP assay to unambiguously confirm their functional profiles. The functional potency of the compounds tested using the cyclase assay is also represented by the EC50 (cAMP) value and similarly the lower the EC50 (cAMP) value the higher the potency of the compound for the receptor. A detailed description of the methods used to test compounds using the cAMP assay is given in Yingpeng, et al. J. Med. Chem. (2018) 61, 8639-8657 the content of which is hereby incorporated by reference. The EC50 values (potency of a test compound) of the functional assays may or may not be accompanied by the E(max) value in tables 1-5 (efficacy of the test compound). E(max)/efficacy is the maximum GTP stimulation or cAMP inhibition levels and is presented as the percentage of maximum response evoked by a standard CB1/CB2 full agonist (e.g., CP-55,940) for reference see the paper cited above. If a test compound has an efficacy close to 100% of the standard full agonist, then the test compound is also classified as full agonist.

[3] = molecular target: T2, CB1 receptor (Rattus norvegicus, UniProt P20272); assay: CB1 receptor binding affinity (Ki)
T2 sequence (P20272 whole entry): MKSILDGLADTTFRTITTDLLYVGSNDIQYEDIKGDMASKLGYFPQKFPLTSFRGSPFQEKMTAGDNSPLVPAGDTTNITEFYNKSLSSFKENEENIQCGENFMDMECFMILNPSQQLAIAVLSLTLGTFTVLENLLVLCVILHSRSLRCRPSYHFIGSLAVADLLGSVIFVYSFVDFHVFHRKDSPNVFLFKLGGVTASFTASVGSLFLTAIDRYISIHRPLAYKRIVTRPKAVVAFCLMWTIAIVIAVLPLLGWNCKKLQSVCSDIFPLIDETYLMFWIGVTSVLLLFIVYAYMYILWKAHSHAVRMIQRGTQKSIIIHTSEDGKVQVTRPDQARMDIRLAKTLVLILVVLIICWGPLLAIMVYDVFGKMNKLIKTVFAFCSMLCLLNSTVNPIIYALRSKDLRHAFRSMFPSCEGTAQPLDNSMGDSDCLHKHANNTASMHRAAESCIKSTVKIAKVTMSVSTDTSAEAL
Procedure: (§1) Some disclosed compounds were tested for CB1 and CB2 receptor binding affinity (Tables 1, 2, 3, 4, 5). As used herein “binding affinity” is represented by the Ki value. The Ki value is the affinity constant and describes the affinity of the compound for the receptor. […] A detailed description of the methods used to test “binding affinity” of compounds is given in Makriyannis, et al., US 2007/0135388 the content of which is hereby incorporated by reference.

[4] = molecular target: T1, CB2 receptor; assay: CB2 receptor binding affinity (Ki); design: CB2 receptor Ki; CB2 receptor Ki (PMSF); other: with PMSF
Procedure: as §1

[5] = molecular target: CB1 receptor (rCB1) (Rattus norvegicus, UniProt P20272); assay: cAMP assay (inhibition of FSK stimulated cAMP), CB1; format: cell-based
CB1 receptor (rCB1), sequence (P20272 whole entry): as above
Procedure: Further functional characterization of some of the disclosed compounds tested initially for “binding affinity” or for GTPγ-S binding was performed by using the cyclic adenosine monophosphate (cAMP) assay. […] A detailed description of the methods used to test compounds using the cAMP assay is given in Yingpeng, et al. J. Med. Chem. (2018) 61, 8639-8657 the content of which is hereby incorporated by reference. The EC50 values (potency of a test compound) of the functional assays may or may not be accompanied by the E(max) value in tables 1-5 (efficacy of the test compound). E(max)/efficacy is the maximum GTP stimulation or cAMP inhibition levels and is presented as the percentage of maximum response evoked by a standard CB1/CB2 full agonist (e.g., CP-55,940) for reference see the paper cited above.

[6] = molecular target: T1, CB2 receptor; assay: hCB2 receptor binding affinity (Ki), Table 7
Procedure: Some disclosed compounds were tested for CB1 and CB2 receptor binding affinity (Tables 1, 2, 3, 4, 5). As used herein “binding affinity” is represented by the Ki value. The Ki value is the affinity constant and describes the affinity of the compound for the receptor. The lower the Ki value, the higher the affinity of the compound for the receptor. A detailed description of the methods used to test “binding affinity” of compounds is given in Makriyannis, et al., US 2007/0135388 the content of which is hereby incorporated by reference.

[7] = molecular target: T2, CB1 receptor; assay: GTPγ-S binding assay, CB1; format: biochemical; settings: class symbols; read-out: EC50 (GTP) CB1 receptor
Procedure: The activity of some of the disclosed compounds for the CB1 and CB2 receptors was assessed by using the GTPγ-S binding assay (Tables 2,3,4). As used herein the “effect” of the compound on the GTPγ-S assay is represented by the EC50 (GTP) value. […] Med. Chem. Letters 2006, 16(9), 2437 and Griffin, et al., J. Pharmacol. Exp. Ther. 1998, 285(2), 553-560 the content of which is hereby incorporated by reference.

[8] = molecular target: T1, CB2 receptor; assay: CB2 receptor binding affinity (Ki); design: CB2 receptor Ki
Procedure: as §1

[9] = with PMSF, read-out: CB1 Receptor Ki with PMSF
[10] = without PMSF, read-out: CB1 receptor affinity Ki
[11] = percentage of maximum response of standard full agonist (e.g., CP-55,940)

T1 sequence (P34972 whole entry): as the sequence (P34972 whole entry) above

## CCCCC/C=C\C/C=C\C/C=C\C/C=C\CCCC(=O)OC(CO)CO [Compound 2-AG, 2-arachidonoylglycerol, reference compound]
[1]; class symbols, read-out: EC50 (GTP) CB2 receptor
  EC50: 200 to 1000 nM
[2]; class symbols
  EC50: 10 to 200 nM

## C[C@H](/C=C\C/C=C\C/C=C\CCCC(=O)N[C@H](C)CO)/C=C\CCCCCC#N [Compound 4.1.5a, (S,5Z,8Z,11Z,14Z)-20-Cyano-N—((R)-1-hydroxypropan-2-yl)-13-methylicosa-5,8,11,14-tetraenamide]
[3]; [9]
  Ki: 0.01 to 10 nM
[3]; [10]
  Ki: 0.01 to 10 nM
[4]; read-out: CB2 receptor Ki
  Ki: 0.01 to 10 nM
[5]; full or partial agonist
  functional profile at CB1 (cAMP): partial agonist
[5]; numeric
  EC50: 8.7 nM
[5]; [11]
  Emax: 76%

## C[C@H](/C=C\C/C=C\C/C=C\CCCC(=O)N[C@H](C)CO)/C=C\CCCCC(F)(F)F [Compound 4.1.5c]
[6]
  Ki: 3.6 nM
[6]; vs AM 356
  fold higher binding affinity for CB2 compared to AM 356: 61 fold
[6]; vs AMG 315
  fold higher binding affinity for CB2 compared to AMG 315: 49 fold

## CCCCC1(/C=C\C/C=C\C/C=C\C/C=C\CCCC(=O)N[C@H](C)CO)CCCC1 [Compound 4.4.3, (5Z,8Z,11Z,14Z)-15-(1-Butylcyclopentyl)-N—((R)-1-hydroxypropan-2-yl)pentadeca-5,8,11,14-tetraenamide]
[3]; [9]
  Ki: 200 to 1000 nM
[4]; read-out: CB2 receptor Ki (PMSF), with PMSF
  Ki: > 1000 nM

## CCCCCc1ccccc1C/C=C\C/C=C\C/C=C\CCCC(=O)N[C@H](C)CO [Compound 4.6.3, (5Z,8Z,11Z)—N—((R)-1-hydroxypropan-2-yl)-13-(2-pentylphenyl)trideca-5,8,11-trienamide]
[3]; [9]
  Ki: 10 to 200 nM
[3]; [10]
  Ki: 10 to 200 nM
[4]; read-out: CB2 receptor Ki
  Ki: 10 to 200 nM

## C[C@H](/C=C\C/C=C\C/C=C\CCCC(=O)N[C@H](C)CO)/C=C\CCCCCO [Compound 4.7.2]
[3]; [10]
  Ki: 10 to 200 nM
[4]; read-out: CB2 receptor Ki
  Ki: 10 to 200 nM

## C[C@H](/C=C\C/C=C\C/C=C\CCCC(=O)N[C@H](C)CO)/C=C\CCCCCF [Compound 4.7.4, (S,5Z,8Z,11Z,14Z)-20-Fluoro-N—((R)-1-hydroxypropan-2-yl)-13-methylicosa-5,8,11,14-tetraenamide]
[3]; [10]
  Ki: 0.01 to 10 nM
[4]; read-out: CB2 receptor Ki
  Ki: 10 to 200 nM

## CCCCC/C=C\C/C=C\C/C=C\C/C=C\C1CC[C@@H](C(=O)OC(CO)CO)C1 (some centres unmarked) [Compound 5.2.2e]
[7]
  EC50: > 1000 nM
[2]; class symbols
  EC50: 200 to 1000 nM

## CCCCC/C=C\C/C=C\C/C=C\C/C=C\COC(C)C(=O)OC(CO)CO (centres unmarked) [Compound 5.3.3, 1,3-Dihydroxypropan-2-yl 2-(((2Z,5Z,8Z,11Z)-heptadeca-2,5,8,11-tetraen-1-yl)oxy)propanoate]
[7]
  EC50: > 1000 nM

## CCCCC/C=C\C/C=C\C/C=C\[C@H](C)/C=C\CCCC(=O)OC(CO)CO [Compound 5.4.3a, 1,3-Dihydroxypropan-2-yl (R,5Z,8Z,11Z,14Z)-7-methylicosa-5,8,11,14-tetraenoate]
[7]
  EC50: > 1000 nM
[1]
  EC50: 200 to 1000 nM

## CCCCC/C=C\C/C=C\C/C=C\[C@@H](C)/C=C\CCCC(=O)OC(CO)CO [Compound 5.4.3b, 1,3-Dihydroxypropan-2-yl (S,5Z,8Z,11Z,14Z)-7-methylicosa-5,8,11,14-tetraenoate]
[7]
  EC50: > 1000 nM
[1]
  EC50: > 1000 nM

## CCCCC/C=C\[C@H](C)/C=C\C/C=C\C/C=C\CCCCNC(=O)COC [Compound 6.1.1, 2-Methoxy-N—((S,5Z,8Z,11Z,14Z)-13-methylicosa-5,8,11,14-tetraen-1-yl)acetamide]
[2]; full or partial agonist
  functional profile at CB2 (cAMP): partial agonist
[2]; numeric
  EC50: 1.2 nM
[2]; [11]
  Emax: 40%
[3]; [10]
  Ki: 0.01 to 10 nM
[8]
  Ki: 0.01 to 10 nM
